From ChEMBL document CHEMBL1150977, “A quantitative analysis of kinase inhibitor selectivity” (Nat Biotechnol, 2008)

Assays:
[1] = biological target: T1, Serine/threonine-protein kinase Nek5 (Homo sapiens, UniProt Q6P3R8)
T1 sequence (Q6P3R8 whole entry): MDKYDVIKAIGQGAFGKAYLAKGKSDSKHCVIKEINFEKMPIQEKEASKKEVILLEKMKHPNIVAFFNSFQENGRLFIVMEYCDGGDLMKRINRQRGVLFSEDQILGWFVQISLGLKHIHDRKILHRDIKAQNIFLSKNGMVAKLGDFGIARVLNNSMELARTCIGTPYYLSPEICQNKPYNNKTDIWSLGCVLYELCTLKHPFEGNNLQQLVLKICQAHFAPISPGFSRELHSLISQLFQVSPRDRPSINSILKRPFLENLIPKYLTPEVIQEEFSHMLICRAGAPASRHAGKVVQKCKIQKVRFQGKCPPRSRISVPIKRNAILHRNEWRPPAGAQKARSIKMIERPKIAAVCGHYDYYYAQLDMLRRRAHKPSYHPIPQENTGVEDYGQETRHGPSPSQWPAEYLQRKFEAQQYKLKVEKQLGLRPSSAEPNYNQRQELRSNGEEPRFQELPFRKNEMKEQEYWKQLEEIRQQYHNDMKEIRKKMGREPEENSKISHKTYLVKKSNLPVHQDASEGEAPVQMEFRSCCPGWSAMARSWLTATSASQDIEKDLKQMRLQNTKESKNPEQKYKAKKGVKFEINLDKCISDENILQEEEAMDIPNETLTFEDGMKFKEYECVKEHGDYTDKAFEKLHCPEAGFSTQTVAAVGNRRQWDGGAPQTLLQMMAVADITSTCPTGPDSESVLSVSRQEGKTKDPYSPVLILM

[2] = biological target: Serine/threonine-protein kinase 32B (Homo sapiens, UniProt Q9NY57)
Serine/threonine-protein kinase 32B, sequence (Q9NY57 whole entry): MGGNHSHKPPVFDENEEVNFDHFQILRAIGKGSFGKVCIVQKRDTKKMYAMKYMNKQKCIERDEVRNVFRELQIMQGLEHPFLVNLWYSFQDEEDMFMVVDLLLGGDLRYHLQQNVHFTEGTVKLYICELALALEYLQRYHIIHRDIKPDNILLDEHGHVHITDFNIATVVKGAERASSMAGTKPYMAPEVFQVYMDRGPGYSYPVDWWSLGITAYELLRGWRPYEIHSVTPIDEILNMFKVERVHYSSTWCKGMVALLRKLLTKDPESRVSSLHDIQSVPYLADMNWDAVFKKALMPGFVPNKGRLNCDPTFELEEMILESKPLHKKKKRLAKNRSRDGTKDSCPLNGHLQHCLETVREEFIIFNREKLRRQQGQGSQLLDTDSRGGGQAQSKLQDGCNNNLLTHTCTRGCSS

[3] = biological target: Tyrosine-protein kinase ABL1 (Homo sapiens, UniProt P00519, Q252H)
Ephrin type-B receptor 3 = biological target: T2, Ephrin type-B receptor 3 (Homo sapiens, UniProt P54753)
T2 sequence (P54753 whole entry): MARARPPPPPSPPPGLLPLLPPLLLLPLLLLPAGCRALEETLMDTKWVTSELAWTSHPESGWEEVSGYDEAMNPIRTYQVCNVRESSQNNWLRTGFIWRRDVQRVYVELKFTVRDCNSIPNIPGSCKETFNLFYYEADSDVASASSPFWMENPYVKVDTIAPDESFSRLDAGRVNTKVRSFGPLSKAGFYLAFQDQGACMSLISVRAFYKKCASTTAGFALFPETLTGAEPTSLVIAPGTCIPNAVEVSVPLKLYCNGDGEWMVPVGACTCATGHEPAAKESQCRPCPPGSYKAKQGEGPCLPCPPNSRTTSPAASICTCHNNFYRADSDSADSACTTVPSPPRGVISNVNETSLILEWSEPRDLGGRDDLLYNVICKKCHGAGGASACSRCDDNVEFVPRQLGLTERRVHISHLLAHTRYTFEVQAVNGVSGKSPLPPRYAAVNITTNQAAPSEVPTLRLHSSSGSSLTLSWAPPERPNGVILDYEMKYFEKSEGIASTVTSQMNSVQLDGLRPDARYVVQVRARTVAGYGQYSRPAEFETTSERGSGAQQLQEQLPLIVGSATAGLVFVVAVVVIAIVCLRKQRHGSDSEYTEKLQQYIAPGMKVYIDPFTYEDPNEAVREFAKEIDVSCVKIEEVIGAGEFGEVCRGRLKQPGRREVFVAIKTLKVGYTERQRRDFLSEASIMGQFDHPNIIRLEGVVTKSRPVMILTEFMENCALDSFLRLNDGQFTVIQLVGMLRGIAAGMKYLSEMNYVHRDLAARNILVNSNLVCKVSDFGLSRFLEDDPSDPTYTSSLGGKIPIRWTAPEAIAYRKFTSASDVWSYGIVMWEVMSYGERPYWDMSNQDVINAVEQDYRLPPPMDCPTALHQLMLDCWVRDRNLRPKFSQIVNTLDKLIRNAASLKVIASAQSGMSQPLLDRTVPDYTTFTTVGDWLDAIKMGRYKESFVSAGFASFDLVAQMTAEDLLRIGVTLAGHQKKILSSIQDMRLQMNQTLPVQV

[4] = biological target: MAP kinase-activated protein kinase 2 (Homo sapiens, UniProt P49137)
SRSF protein kinase 1 = SRSF protein kinase 1 (Homo sapiens, UniProt Q96SB4)
[5] = biological target: Tyrosine-protein kinase Lck (Homo sapiens, UniProt P06239)
Tyrosine-protein kinase Lck, sequence (P06239 whole entry): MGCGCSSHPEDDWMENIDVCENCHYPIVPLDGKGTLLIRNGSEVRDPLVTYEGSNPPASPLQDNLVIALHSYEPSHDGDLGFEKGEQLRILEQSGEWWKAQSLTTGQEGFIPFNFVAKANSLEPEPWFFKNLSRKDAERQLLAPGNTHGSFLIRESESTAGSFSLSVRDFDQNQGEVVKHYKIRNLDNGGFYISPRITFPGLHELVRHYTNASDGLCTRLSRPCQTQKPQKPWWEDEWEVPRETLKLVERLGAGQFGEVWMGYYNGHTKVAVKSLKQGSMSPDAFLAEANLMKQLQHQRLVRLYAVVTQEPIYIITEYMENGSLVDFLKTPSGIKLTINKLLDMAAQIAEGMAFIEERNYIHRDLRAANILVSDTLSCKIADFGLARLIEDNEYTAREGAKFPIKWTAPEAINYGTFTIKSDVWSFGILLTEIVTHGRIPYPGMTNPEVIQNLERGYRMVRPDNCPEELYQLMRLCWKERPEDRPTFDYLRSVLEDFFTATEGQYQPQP

[6] = biological target: Serine/threonine-protein kinase 25 (Homo sapiens, UniProt O00506)
Serine/threonine-protein kinase 25, sequence (O00506 whole entry): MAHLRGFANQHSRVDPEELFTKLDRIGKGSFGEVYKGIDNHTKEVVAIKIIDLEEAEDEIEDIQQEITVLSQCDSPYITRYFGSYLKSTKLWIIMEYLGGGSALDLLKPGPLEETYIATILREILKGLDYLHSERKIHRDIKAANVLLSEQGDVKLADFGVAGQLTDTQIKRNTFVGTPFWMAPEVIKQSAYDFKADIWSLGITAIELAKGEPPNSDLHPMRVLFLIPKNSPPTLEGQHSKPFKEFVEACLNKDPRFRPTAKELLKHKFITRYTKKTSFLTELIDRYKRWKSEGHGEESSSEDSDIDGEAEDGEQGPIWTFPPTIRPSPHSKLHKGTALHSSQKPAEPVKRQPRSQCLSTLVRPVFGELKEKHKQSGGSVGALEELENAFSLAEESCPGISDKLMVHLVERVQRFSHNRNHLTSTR

[7] = biological target: Tyrosine-protein kinase Fer (Homo sapiens, UniProt P16591)
Tyrosine-protein kinase Fer, sequence (P16591 whole entry): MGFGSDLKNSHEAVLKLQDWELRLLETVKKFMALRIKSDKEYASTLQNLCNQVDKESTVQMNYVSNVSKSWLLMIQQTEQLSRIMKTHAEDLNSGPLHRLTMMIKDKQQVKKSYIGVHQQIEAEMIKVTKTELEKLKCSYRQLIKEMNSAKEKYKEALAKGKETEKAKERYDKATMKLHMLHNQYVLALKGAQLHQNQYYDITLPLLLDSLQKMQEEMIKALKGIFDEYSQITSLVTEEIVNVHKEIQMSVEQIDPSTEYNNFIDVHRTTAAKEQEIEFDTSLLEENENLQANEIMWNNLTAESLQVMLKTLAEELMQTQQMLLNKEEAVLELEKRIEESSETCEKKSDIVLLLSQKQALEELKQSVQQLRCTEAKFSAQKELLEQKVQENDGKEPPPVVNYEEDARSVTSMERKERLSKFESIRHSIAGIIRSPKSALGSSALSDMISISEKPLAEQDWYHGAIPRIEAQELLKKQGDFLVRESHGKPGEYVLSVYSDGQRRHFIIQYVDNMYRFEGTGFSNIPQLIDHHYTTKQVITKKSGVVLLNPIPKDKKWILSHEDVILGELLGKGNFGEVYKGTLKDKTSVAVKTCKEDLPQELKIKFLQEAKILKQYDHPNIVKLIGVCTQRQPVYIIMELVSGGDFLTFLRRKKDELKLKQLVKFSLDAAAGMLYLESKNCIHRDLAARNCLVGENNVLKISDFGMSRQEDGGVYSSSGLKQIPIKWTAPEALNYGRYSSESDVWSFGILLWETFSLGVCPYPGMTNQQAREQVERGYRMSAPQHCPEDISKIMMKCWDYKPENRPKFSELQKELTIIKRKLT

[8] = biological target: Ribosomal protein S6 kinase alpha-6 (Homo sapiens, UniProt Q9UK32)
[9] = biological target: Proto-oncogene tyrosine-protein kinase ROS (Homo sapiens, UniProt P08922)
[10] = biological target: Calcium/calmodulin-dependent protein kinase kinase 2 (Homo sapiens, UniProt Q96RR4)
Calcium/calmodulin-dependent protein kinase kinase 2, sequence (Q96RR4 whole entry): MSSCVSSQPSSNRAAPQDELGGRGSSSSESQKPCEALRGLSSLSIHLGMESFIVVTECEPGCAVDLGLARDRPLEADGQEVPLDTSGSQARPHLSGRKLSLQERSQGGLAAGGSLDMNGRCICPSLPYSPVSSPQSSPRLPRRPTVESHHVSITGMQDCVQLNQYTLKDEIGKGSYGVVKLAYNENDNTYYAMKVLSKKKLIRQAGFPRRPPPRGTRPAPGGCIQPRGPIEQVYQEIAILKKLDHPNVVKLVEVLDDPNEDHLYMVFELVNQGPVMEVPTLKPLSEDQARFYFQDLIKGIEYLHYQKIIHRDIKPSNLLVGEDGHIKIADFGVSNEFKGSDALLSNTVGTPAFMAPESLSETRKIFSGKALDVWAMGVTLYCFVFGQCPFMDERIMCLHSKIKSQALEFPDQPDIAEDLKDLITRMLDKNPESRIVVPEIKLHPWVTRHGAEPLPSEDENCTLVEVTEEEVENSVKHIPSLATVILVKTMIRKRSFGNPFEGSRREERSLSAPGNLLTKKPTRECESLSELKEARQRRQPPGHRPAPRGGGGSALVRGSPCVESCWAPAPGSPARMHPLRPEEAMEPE

Activin receptor type-2B = Activin receptor type-2B (Homo sapiens, UniProt Q13705)
[11] = biological target: Tyrosine-protein kinase Blk (Homo sapiens, UniProt P51451)
Tyrosine-protein kinase Blk, sequence (P51451 whole entry, canonical isoform): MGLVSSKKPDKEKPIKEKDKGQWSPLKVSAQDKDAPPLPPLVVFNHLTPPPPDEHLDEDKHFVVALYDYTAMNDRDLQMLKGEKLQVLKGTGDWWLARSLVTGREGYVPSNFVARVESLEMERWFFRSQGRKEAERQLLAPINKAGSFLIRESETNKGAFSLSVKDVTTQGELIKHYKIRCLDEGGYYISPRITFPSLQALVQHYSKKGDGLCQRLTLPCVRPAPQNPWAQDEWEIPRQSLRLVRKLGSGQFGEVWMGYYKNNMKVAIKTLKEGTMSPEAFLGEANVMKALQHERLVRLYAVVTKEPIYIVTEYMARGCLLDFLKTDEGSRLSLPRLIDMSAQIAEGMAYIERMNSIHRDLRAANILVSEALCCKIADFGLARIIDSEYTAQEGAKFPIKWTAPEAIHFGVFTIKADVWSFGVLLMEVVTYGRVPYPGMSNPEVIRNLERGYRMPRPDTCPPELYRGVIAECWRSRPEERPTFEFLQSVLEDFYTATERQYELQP

[12] = biological target: Phosphatidylinositol 4,5-bisphosphate 3-kinase catalytic subunit alpha isoform (Homo sapiens, UniProt P42336)
Phosphatidylinositol 4,5-bisphosphate 3-kinase catalytic subunit alpha isoform, sequence (P42336 whole entry, canonical isoform): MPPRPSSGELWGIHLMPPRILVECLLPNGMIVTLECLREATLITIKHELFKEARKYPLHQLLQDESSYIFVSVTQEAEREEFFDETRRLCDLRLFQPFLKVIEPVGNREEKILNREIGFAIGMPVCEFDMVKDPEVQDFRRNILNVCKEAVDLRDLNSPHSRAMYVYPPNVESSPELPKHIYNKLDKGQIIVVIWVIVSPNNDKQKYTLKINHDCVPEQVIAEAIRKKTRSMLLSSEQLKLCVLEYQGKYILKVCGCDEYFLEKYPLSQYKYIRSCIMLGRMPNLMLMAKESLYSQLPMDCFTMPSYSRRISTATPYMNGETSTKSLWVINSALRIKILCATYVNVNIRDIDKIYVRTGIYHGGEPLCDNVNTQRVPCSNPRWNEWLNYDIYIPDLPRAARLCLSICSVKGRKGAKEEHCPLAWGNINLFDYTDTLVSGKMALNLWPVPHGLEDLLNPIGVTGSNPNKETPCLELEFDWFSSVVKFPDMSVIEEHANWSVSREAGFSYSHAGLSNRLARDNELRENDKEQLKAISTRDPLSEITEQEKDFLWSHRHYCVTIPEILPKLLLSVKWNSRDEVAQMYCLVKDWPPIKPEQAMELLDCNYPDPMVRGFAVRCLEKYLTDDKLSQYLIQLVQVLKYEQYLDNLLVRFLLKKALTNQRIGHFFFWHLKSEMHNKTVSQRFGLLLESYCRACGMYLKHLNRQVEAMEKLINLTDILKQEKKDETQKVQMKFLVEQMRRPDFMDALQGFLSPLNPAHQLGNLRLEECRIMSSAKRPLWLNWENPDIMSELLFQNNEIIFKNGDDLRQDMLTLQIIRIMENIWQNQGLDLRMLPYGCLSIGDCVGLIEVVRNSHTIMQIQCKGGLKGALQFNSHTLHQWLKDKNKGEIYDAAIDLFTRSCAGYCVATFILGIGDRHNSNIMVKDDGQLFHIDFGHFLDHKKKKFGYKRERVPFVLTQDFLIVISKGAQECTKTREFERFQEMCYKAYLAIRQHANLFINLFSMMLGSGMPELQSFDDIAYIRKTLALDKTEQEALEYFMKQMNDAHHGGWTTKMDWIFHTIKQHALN

[13] = biological target: Cyclin-dependent kinase 8 (Homo sapiens, UniProt P49336)
Cyclin-dependent kinase 8, sequence (P49336 whole entry): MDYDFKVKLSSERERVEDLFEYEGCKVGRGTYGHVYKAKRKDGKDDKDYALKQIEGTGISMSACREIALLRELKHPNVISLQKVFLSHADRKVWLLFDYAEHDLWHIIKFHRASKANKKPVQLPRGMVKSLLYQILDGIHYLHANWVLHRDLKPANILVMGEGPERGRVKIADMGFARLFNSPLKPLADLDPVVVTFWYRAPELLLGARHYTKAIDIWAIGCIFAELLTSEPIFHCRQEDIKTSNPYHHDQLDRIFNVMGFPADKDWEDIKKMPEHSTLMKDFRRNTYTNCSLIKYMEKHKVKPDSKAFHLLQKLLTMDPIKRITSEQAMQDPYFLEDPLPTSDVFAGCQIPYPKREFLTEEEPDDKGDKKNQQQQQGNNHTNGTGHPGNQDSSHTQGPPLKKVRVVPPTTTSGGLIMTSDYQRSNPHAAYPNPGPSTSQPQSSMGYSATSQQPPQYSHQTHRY

For `COCC(=O)NC/C=C/c1ccc2ncnc(Nc3ccc(Oc4ccc(C)nc4)c(C)c3)c2c1` [CP-724714], which Kd [1] is on record?
Its Kd is over 10 µM.

And the Kd [2]?
The Kd was over 10 µM.

And the Kd [3]?
Its Kd is over 10 µM.

And the Kd (Ephrin type-B receptor 3)?
The Kd was over 10 µM.

What about the Kd [4] of the same molecule?
The Kd was over 10 µM.

And the Kd (SRSF protein kinase 1)?
Its Kd is over 10 µM.

What about the Kd [5] of the same molecule?
Its Kd is over 10 µM.

And the Kd [6]?
Its Kd is over 10 µM.

What about the Kd [7] of the same molecule?
Its Kd is over 10 µM.

What about the Kd [8] of the same molecule?
The Kd was over 10 µM.

And the Kd [9]?
Its Kd is over 10 µM.

And the Kd [10]?
Its Kd is over 10 µM.

What about the Kd (Activin receptor type-2B) of the same molecule?
The Kd was over 10 µM.

And the Kd [11]?
Its Kd is over 10 µM.

For `Nc1nc(Nc2ccc(S(N)(=O)=O)cc2)nn1C(=O)c1c(F)cccc1F` [JNJ-7706621], which Kd [1] is on record?
Its Kd is over 10 µM.

What about the Kd [12] of the same molecule?
Its Kd is over 10 µM.

And the Kd [2]?
The Kd was over 10 µM.

What about the Kd (Ephrin type-B receptor 3) of the same molecule?
Its Kd is over 10 µM.

And the Kd [4]?
The Kd was over 10 µM.

And the Kd [6]?
The Kd was 0.36 µM.

What about the Kd [7] of the same molecule?
Its Kd is over 10 µM.

And the Kd [9]?
The Kd was over 10 µM.

What about the Kd (Activin receptor type-2B) of the same molecule?
The Kd was 5.9 µM.

And the Kd [11]?
Its Kd is over 10 µM.

With `CCOc1cc2ncc(C#N)c(Nc3ccc(F)c(Cl)c3)c2cc1NC(=O)/C=C/CN(C)C` [PELITINIB] as the molecule, how does the Kd [1] read?
The Kd was over 10 µM.

What about the Kd [12] of the same molecule?
Its Kd is over 10 µM.

What about the Kd [2] of the same molecule?
Its Kd is 6 µM.

What about the Kd (Ephrin type-B receptor 3) of the same molecule?
The Kd was over 10 µM.

And the Kd [4]?
The Kd was over 10 µM.

And the Kd (SRSF protein kinase 1)?
The Kd was over 10 µM.

And the Kd [13]?
Its Kd is over 10 µM.

And the Kd [7]?
The Kd was 8.8 µM.

And the Kd [8]?
The Kd was over 10 µM.

And the Kd [9]?
Its Kd is over 10 µM.

What about the Kd (Activin receptor type-2B) of the same molecule?
The Kd was over 10 µM.

And the Kd [11]?
The Kd was 0.078 µM.

`Oc1ccc(-c2nc(-c3ccncc3)c(-c3ccc(F)cc3)[nH]2)cc1` [SB-202190] was tested. Which Kd [1] did it give?
Its Kd is over 10 µM.

What about the Kd [12] of the same molecule?
Its Kd is over 10 µM.

And the Kd [2]?
The Kd was 4.9 µM.

What about the Kd [3] of the same molecule?
Its Kd is over 10 µM.

What about the Kd (Ephrin type-B receptor 3) of the same molecule?
Its Kd is over 10 µM.

What about the Kd [4] of the same molecule?
Its Kd is over 10 µM.

What about the Kd (SRSF protein kinase 1) of the same molecule?
Its Kd is over 10 µM.

What about the Kd [5] of the same molecule?
The Kd was over 10 µM.

And the Kd [6]?
Its Kd is over 10 µM.

What about the Kd [13] of the same molecule?
Its Kd is over 10 µM.

What about the Kd [7] of the same molecule?
Its Kd is over 10 µM.

What about the Kd [8] of the same molecule?
Its Kd is 0.27 µM.

What about the Kd [9] of the same molecule?
The Kd was over 10 µM.

And the Kd [10]?
The Kd was over 10 µM.

And the Kd (Activin receptor type-2B)?
The Kd was 4.8 µM.

And the Kd [11]?
The Kd was over 10 µM.

Which Kd [1] does the source give for `NC(=O)c1ccc(-c2nc(-c3ccc4c(c3)OCO4)c(-c3ccccn3)[nH]2)cc1` [SB-431542] here?
Its Kd is over 10 µM.

What about the Kd [12] of the same molecule?
The Kd was over 10 µM.

And the Kd [2]?
Its Kd is over 10 µM.

What about the Kd [3] of the same molecule?
Its Kd is over 10 µM.

What about the Kd (Ephrin type-B receptor 3) of the same molecule?
Its Kd is over 10 µM.

What about the Kd [4] of the same molecule?
Its Kd is over 10 µM.

What about the Kd (SRSF protein kinase 1) of the same molecule?
Its Kd is over 10 µM.

And the Kd [5]?
The Kd was over 10 µM.

What about the Kd [6] of the same molecule?
The Kd was over 10 µM.

What about the Kd [13] of the same molecule?
Its Kd is over 10 µM.

And the Kd [7]?
The Kd was over 10 µM.

And the Kd [9]?
Its Kd is over 10 µM.

And the Kd [10]?
Its Kd is over 10 µM.

And the Kd (Activin receptor type-2B)?
The Kd was over 10 µM.

What about the Kd [11] of the same molecule?
Its Kd is over 10 µM.
